Read-outs that look alike come from different tables or passages of the source. *1 amine or outer side, *2 acyl side, *3 side chain or, on linkers, in order; H or OH if unused. Where a SMILES comes first, the peptide text is derived from it. [ ]: non-standard residue; d: D form. X3 = CC(CC(O[*:1])C(=O)[*:2])C(=O)O; NMeV = CN[CH](C(=O)O)C(C)C; NMeA = CN[CH](C)C(=O)O; βAla = NCCC(=O)O
Columns and labels:
[1] = tested on: ZIKV-RLuc (Cambodian strain FSS13025); experiment: microbe, parasite or virus in culture; format: cell-based, Zika virus
[2] = Zika virus, Vero, read-out: Log AC50 (M) (converted)

| Structure (SMILES) | AC50 (Vero cells) [µM] | Log AC50 (M) (Vero cells) | CC-v2 (curve class classification v2 of the dose response curve) [1] | Efficacy (difference between neutral response and maximum compound response) [1] | Max Resp (difference between neutral response and compound response for highest compound concentration) [1] | AC50 ([1]; Zika virus, Vero) [M] | AC50 [1, 2] [M] | AC50 [1] [M] | Log AC50 (M) [1] |
| --- | --- | --- | --- | --- | --- | --- | --- | --- | --- |
| CN1CCN(CCCN2c3ccccc3Sc3ccc(C(F)(F)F)cc32)CC1 [NCGC00013226-15] | 23.3 | -4.6327 | -2.1 | -93.82 | -95.429 | 2.33e-05 | 2.33e-05 | – | – |
| CC(C)(O)/C=C\C(=O)[C@](C)(O)[C@H]1[C@H](O)C[C@]2(C)[C@@H]3CC=C4[C@@H](C=C(O)C(=O)C4(C)C)[C@]3(C)C(=O)C[C@@]12C [NCGC00014911-01] | 3.29 | -5.4827 | -1.1 | -103.985 | -99.739 | 3.29e-06 | 3.29e-06 | – | – |
| CCCCc1oc2ccccc2c1C(=O)c1cc(I)c(OCCN(CC)CC)c(I)c1 [NCGC00015096-17] | 18.5 | -4.7327 | -2.1 | -100.133 | -98.715 | 1.85e-05 | 1.85e-05 | – | – |
| CNCCC(Oc1ccc(C(F)(F)F)cc1)c1ccccc1 (centres unmarked) [NCGC00015428-15] | 16.5 | -4.7827 | -2.2 | -78.657 | -76.003 | 1.65e-05 | 1.65e-05 | – | – |
| OCCN1CCN(CCCN2c3ccccc3Sc3ccc(C(F)(F)F)cc32)CC1 [NCGC00015436-11] | 26.1 | -4.5827 | -3 | -75.446 | -79.581 | 2.61e-05 | 2.61e-05 | – | – |
| CC(C)(Sc1ccc(CCN(CCCCC2CCCCC2)C(=O)NC2CCCCC2)cc1)C(=O)O [NCGC00015480-13] | 32.9 | – | -2.2 | -93.466 | -98.662 | 3.29e-05 | 3.29e-05 | – | – |
| O=C(Nc1ccc([N+](=O)[O-])cc1Cl)c1cc(Cl)ccc1O [NCGC00015735-11] | 0.362 | -6.4408 | -1.1 | -106.368 | -100.429 | – | – | 3.62e-07 | -6.4408 |
| O=C(Nc1ccc([N+](=O)[O-])cc1Cl)c1cc(Cl)ccc1O [NCGC00015735-12] | 1.04 | -5.9827 | -1.1 | -94.574 | -99.55 | – | – | 1.04e-06 | -5.9827 |
| CCCN(CC1CC1)c1nc(C)nc(Nc2c(Cl)cc(Cl)cc2Cl)c1Cl [NCGC00015737-02] | 36.9 | -4.4327 | -3 | -116.403 | -99.557 | 3.69e-05 | 3.69e-05 | – | – |
| COC(=O)C1=C(C)NC(C)=C(C(=O)OCCN(C)Cc2ccccc2)C1c1cccc([N+](=O)[O-])c1 (centres unmarked) [NCGC00015747-03] | 36.9 | -4.4327 | -3 | -68.655 | -54.296 | 3.69e-05 | 3.69e-05 | – | – |
| O=c1[nH]c2ccccc2n1C1CCN(CCCC(c2ccc(F)cc2)c2ccc(F)cc2)CC1 [NCGC00015802-18] | 20.8 | -4.6827 | -2.1 | -98.365 | -96.477 | 2.08e-05 | 2.08e-05 | – | – |
| COc1ccc(CCN(C)CCCC(C#N)(c2ccc(OC)c(OC)c2)C(C)C)cc1OC (centres unmarked) [NCGC00016083-13] | 15.1 | -4.8199 | – | – | – | 1.51e-05 | 1.51e-05 | – | – |
| Cc1cccc(C)c1OCC(=O)N[C@@H](Cc1ccccc1)[C@@H](O)C[C@H](Cc1ccccc1)NC(=O)[C@H](C(C)C)N1CCCNC1=O [NCGC00164576-04] | – | – | 4 | – | -20.627 | – | – | – | – |
| CCCCCCCCCCC[C@@H](C[C@@H]1OC(=O)[C@H]1CCCCCC)OC(=O)C(CC(C)C)NC=O (some centres unmarked) [NCGC00165856-03] | – | – | -3 | 0 | -33.733 | – | – | – | – |
| CC[C@@]1([C@@H]2O[C@@H]([C@H]3O[C@@](O)(CO)[C@H](C)C[C@@H]3C)C[C@@H]2C)CC[C@H]([C@]2(C)CC[C@]3(C[C@H](O)[C@@H](C)[C@@H]([C@@H](C)[C@@H](OC)[C@H](C)C(=O)O)O3)O2)O1 [NCGC00179454-04] | – | – | 4 | 29.905 | -20.473 | – | – | – | – |
| CC1(C)C=Cc2c(ccc(C(=O)/C=C/c3ccccc3)c2O)O1 [NCGC00187466-03] | – | – | 4 | – | -35.49 | – | – | – | – |
| CC[C@@H]1C(=O)N(C)c2cnc(Nc3ccc(C(=O)NC4CCC(N5CCN(CC6CC6)CC5)CC4)cc3OC)nc2N1C(C)C (some centres unmarked) [NCGC00263087-01] | – | – | 4 | 12.227 | 10.387 | – | – | – | – |
| CC(C)(N)C(=O)N[C@H](COCc1ccccc1)C(=O)N1CCC2(CC1)CN([S+](C)(=O)[O-])c1ccccc12 [NCGC00263115-01] | – | – | 4 | -25.4 | -0.591 | – | – | – | – |
| CCCCc1ccc(N[S+](=O)([O-])c2ccc(C)c(C(=O)N3CCN(c4cccc(C)c4C)CC3)c2)cc1 [NCGC00263234-01] | – | – | -3 | -38.307 | -30.256 | 7.59e-05 | 7.59e-05 | – | – |
| COc1ccc(/C=C/C(=O)/C=C/c2ccc(OC)cc2)cc1 [NCGC00336197-02] | – | – | 3 | 41.267 | 6.905 | – | – | – | – |
| CCc1ccc(C(=O)Nc2cc(CN3CCN(C)CC3)cc(C(F)(F)F)c2)cc1C#Cc1cnc2ccnn2c1 [NCGC00347217-02] | – | – | -3 | -116.826 | -100.407 | – | – | – | – |
| CN(C)c1cccc(-c2c3c(=O)n(-c4ccccc4Cl)[nH]c3cc(=O)n2C)c1 [NCGC00378460-01] | – | – | 4 | 10.267 | 14.909 | – | – | – | – |
| CCC(C)C1NC(=O)C2CCCN2C(=O)C(CC(C)C(=O)O)OC(=O)CCNC(=O)C(C)N(C)C(=O)C(C(C)C)N(C)C1=O (centres unmarked) [NCGC00380598-01] (cyclo([X3]PI[NMeV][NMeA][βAla]); configuration not given here) | – | – | 4 | -20.973 | -24.561 | – | – | – | – |
| CC1OC(OC2C(c3c(O)cc(OC4OC(CO)C(O)C(O)C4O)c4c(=O)cc(-c5ccc(O)cc5)oc34)OC(CO)C(O)C2O)C(O)C(O)C1O (centres unmarked) [NCGC00384535-01] | – | – | 4 | – | -6.059 | – | – | – | – |
| COc1c(O)c(C(=O)/C=C/c2ccccc2)c(OC)c(OC)c1OC [NCGC00384644-01] | – | – | 4 | – | -2.089 | – | – | – | – |
| CC1OC(OC2C(O)COC(O[C@@H]3[C@@H](O)[C@@H](O)[C@H](OC4C(OC(=O)[C@]56CCC(C)(C)CC5C5=CCC7[C@@]8(C)C[C@H](O)[C@H](OC9OC(CO)C(O)C(O)C9O)[C@@](C)(CO)C8[C@H](O)C[C@@]7(C)[C@]5(C)CC6)OCC(O)C4O)O[C@H]3C)C2O)C(O)C(O)C1O (some centres unmarked) [NCGC00385323-01] | – | – | -3 | – | -39.964 | – | – | – | – |
| CC(=O)O[C@H]1C[C@@H]2[C@]3(CC[C@]4(C)[C@@H](C5(C)CCC(C(C)(C)O)O5)[C@@H](O)C[C@@]24C)C[C@@]32CC[C@H](O[C@@H]3OC[C@@H](O)[C@H](O)[C@H]3O)C(C)(C)[C@H]12 (some centres unmarked) [NCGC00385494-01] | – | – | 4 | 27.089 | -22.612 | – | – | – | – |
| CCC(C)C(O)C(=O)OC1CC2C(C)(C)C(OC(C)=O)CC(OC(C)=O)C2(C)C2CC(OC(C)=O)C3(C)C(=CCC3c3ccoc3)C12C (centres unmarked) [NCGC00385571-01] | – | – | -3 | 0 | -47.611 | – | – | – | – |
| CC1=CC(=O)C(=C(C)C)CC2C(C)(O)CCC12O (centres unmarked) [NCGC00385849-01] | – | – | -1.2 | -35.641 | -12.132 | – | – | – | – |
